Like-named read-outs stand apart in the source and are kept apart here.
What was measured:
HER2 = conditions: human catalytic domain of HER2; read-out: in vitro IC50; cited from earlier work
HER2/HER3 = test system: HER2/HER3; set-up: method as in unpublished data; conditions: ref unpublished data; cited from earlier work
HER1 = conditions: human catalytic domain of HER1; read-out: in vitro IC50; cited from earlier work
HER4 = conditions: human catalytic domain of HER4; read-out: in vitro IC50; cited from earlier work
[1] = plasma pharmacokinetics in patients (HPLC–MS/MS, non-compartmental analysis); assay type: in vivo, human; conditions: for AUC(0-t) / Cmax / Tmax: human, plasma, oral; for AUC(0-t): read-out: AUC0-24h dacomitinib, mean (CV%); for Cmax: read-out: Cmax dacomitinib, mean (CV%); for Tmax: read-out: tmax dacomitinib, mean
Procedure: For pharmacokinetic analyses, serial blood samples were obtained from all patients prior to treatment administration on day 1, and 1, 2, 3, 4, 6, 8, 12, 24, 72 and 144 h after the first dose. On day 1 of cycle 2, blood samples were drawn before and 1, 2, 3, 4, 6, 8, 12 and 24 h after administration. Plasma samples were assayed using a validated high-performance liquid chromatography– tandem mass spectrometry method (HPLC–MS/MS). Briefly, dacomitinib and PD-0325901 were extracted from plasma by protein precipitation with a mixture of acetonitrile/methanol (1:1 v/v). Compounds were chromatographically separated using a Waters Xbridge BEH Phenyl column (50 ×2.1-mm ID, 5-μm particle size), and detection was performed using an API4000 tandem mass spectrometer equipped with a turbo ion spray interface, operating in the positive ion mode. Transitions from m/z 480 to 329 and m/z 489 to 255 were monitored for the detection of dacomitinib and PD-0325901, respectively. Stable isotope-labelled internal standards were used for the quantification. The lower and upper limits of quantification were, respectively, 0.5 and 50 ng/ml for dacomitinib, and 5 and 500 ng/ml for PD-0325901. Pharmacokinetic parameters were calculated in R using an in-house-developed validated script for non-compartmental pharmacokinetic analyses (version 3.6.0).[9]

[2] = test system: patients with KRASm CRC, NSCLC or pancreatic cancer; assay type: in vivo; conditions: dacomitinib QD continuous, PD-0325901 BID 21 days on/7 days off
From the text: . The starting doses were based on previous data from single-agent Phase 1 studies with both compounds, taking into account the potential for synergistic toxicity. […]. Dose-escalation decisions were based on safety evaluation of all evaluable patients, performed after completion of the first treatment cycle. Patients were considered evaluable for the dose-determining part of this study if at least one cycle of study treatment was completed, with the minimum safety evaluation conducted, and at least one administration of both drugs received, or if dose-limiting toxicity (DLT) had occurred during the first cycle. If one out of three patients experienced a DLT, the number of patients treated at that dose level was expanded to a maximum of six. […] Patients were continuing study treatment until disease progression, unacceptable toxicity or investigator/patient decision to discontinue.
Safety was monitored throughout the treatment by physical examination, laboratory assessments, electrocardiography, ophthalmic evaluation and collection of adverse events. Adverse events were recorded according to the Common Terminology Criteria for Adverse Events version 4.0. All adverse events that were possible, probable or definite related to study drug were considered as study/treatment related. […]

[3] = 15 mg, All 15 mg doses, Cycle 1 Day 1, n = 23
[4] = 15 mg, All 15 mg doses, Cycle 2 Day 1, n = 18
[5] = 30 mg, All 30 mg doses, Cycle 1 Day 1, n = 17
[6] = 30 mg, All 30 mg doses, Cycle 2 Day 1 or last day of concomitant use, n =11
[7] = Dose-level 1: dacomitinib 30 mg QD + PD-0325901 2 mg BID, Cycle 1 Day 1, n = 6
[8] = Dose-level 1: dacomitinib 30 mg QD + PD-0325901 2 mg BID, Cycle 2 Day 1, n = 6
[9] = Dose-level 2: dacomitinib 15 mg QD + PD-0325901 3 mg BID, Cycle 1 Day 1, n = 6
[10] = Dose-level 2: dacomitinib 15 mg QD + PD-0325901 3 mg BID, Cycle 2 Day 1, n = 5
[11] = Dose-level 3: dacomitinib 15 mg QD + PD-0325901 4 mg BID, Cycle 1 Day 1, n = 2
[12] = Dose-level 3: dacomitinib 15 mg QD + PD-0325901 4 mg BID, Cycle 2 Day 1, n = 2
[13] = Dose-level 4: dacomitinib 15 mg QD + PD-0325901 5 mg BID, Cycle 1 Day 1, n = 3
[14] = Dose-level 4: dacomitinib 15 mg QD + PD-0325901 5 mg BID, Cycle 2 Day 1, n = 3
[15] = Dose-level 5: dacomitinib 15 mg QD + PD-0325901 6 mg BID, Cycle 1 Day 1, n = 8
[16] = Dose-level 5: dacomitinib 15 mg QD + PD-0325901 6 mg BID, Cycle 2 Day 1, n = 5
[17] = Dose-level 6: dacomitinib 30 mg (4/3) QD + PD-0325901 6 mg BID, Cycle 1 Day 1, n = 3
[18] = Dose-level 6: dacomitinib 30 mg (4/3) QD + PD-0325901 6 mg BID, last day of concomitant use of both drugs, n = 1
[19] = Dose-level 7: dacomitinib 30 mg (5/2) QD + PD-0325901 6 mg (5/2) BID, Cycle 1 Day 1, n = 3
[20] = Dose-level 7: dacomitinib 30 mg (5/2) QD + PD-0325901 6 mg (5/2) BID, last day of concomitant use of both drugs, n = 2
[21] = Dose-level 8: dacomitinib 30 mg (5/2) QD + PD-0325901 5 mg (5/2) BID, Cycle 1 Day 1, n = 5
[22] = Dose-level 8: dacomitinib 30 mg (5/2) QD + PD-0325901 5 mg (5/2) BID, last day of concomitant use of both drugs, n=2
[23] = Dose-level -1: dacomitinib 15 mg QD + PD-0325901 2 mg BID, Cycle 1 Day 1, n = 4
[24] = Dose-level -1: dacomitinib 15 mg QD + PD-0325901 2 mg BID, Cycle 2 Day 1, n = 3

COc1cc2ncnc(Nc3ccc(F)c(Cl)c3)c2cc1NC(=O)/C=C/CN1CCCCC1 [dacomitinib]
IC50 (HER2): 45.7 nM | IC50 for HER2/HER3 inhibition (preclinical target plasma concentration) (HER2/HER3): 0.022 µg/mL | IC50 (HER1): 6 nM | IC50 (HER4): 74 nM | plasma concentration versus preclinical target of 22 ng/ml ([1]; 15 mg dacomitinib doses, for a substantial number of patients): did not exceed the preclinical target | increase of exposure with dose ([1]; across dose levels): approximately dose-proportionally | AUC(0-t) [1, 3]: 122 ng·h/mL | Cmax [1, 3]: 8.6 ng/mL | Tmax [1, 3]: 7.6 h | AUC(0-t) [1, 4]: 616 ng·h/mL | Cmax [1, 4]: 31.2 ng/mL | Tmax [1, 4]: 7.2 h | AUC(0-t) [1, 5]: 250 ng·h/mL | Cmax [1, 5]: 16 ng/mL | Tmax [1, 5]: 8.3 h | AUC(0-t) [1, 6]: 909 ng·h/mL | Cmax [1, 6]: 51.7 ng/mL | Tmax [1, 6]: 4.8 h | AUC(0-t) [1, 7]: 318 ng·h/mL | Cmax [1, 7]: 19.2 ng/mL | Tmax [1, 7]: 7.5 h | AUC(0-t) [1, 8]: 888 ng·h/mL | Cmax [1, 8]: 47.4 ng/mL | Tmax [1, 8]: 7.6 h | AUC(0-t) [1, 9]: 112 ng·h/mL | Cmax [1, 9]: 6.7 ng/mL | Tmax [1, 9]: 8.7 h | AUC(0-t) [1, 10]: 549 ng·h/mL | Cmax [1, 10]: 26 ng/mL | Tmax [1, 10]: 9.6 h | AUC(0-t) [1, 11]: 45 ng·h/mL | Cmax [1, 11]: 2.5 ng/mL | Tmax [1, 11]: 12 h | AUC(0-t) [1, 12]: 262 ng·h/mL | Cmax [1, 12]: 25.7 ng/mL | Tmax [1, 12]: 2 h | AUC(0-t) [1, 13]: 137 ng·h/mL | Cmax [1, 13]: 8.5 ng/mL | Tmax [1, 13]: 4.7 h | AUC(0-t) [1, 14]: 654 ng·h/mL | Cmax [1, 14]: 33.5 ng/mL | Tmax [1, 14]: 5 h | AUC(0-t) [1, 15]: 136 ng·h/mL | Cmax [1, 15]: 11.4 ng/mL | Tmax [1, 15]: 7.9 h | AUC(0-t) [1, 16]: 747 ng·h/mL | Cmax [1, 16]: 37.3 ng/mL | Tmax [1, 16]: 4.4 h | AUC(0-t) [1, 17]: 159 ng·h/mL | Cmax [1, 17]: 11.1 ng/mL | Tmax [1, 17]: 7.3 h | AUC(0-t) [1, 18]: 647 ng·h/mL | Cmax [1, 18]: 32 ng/mL | Tmax [1, 18]: 8 h | AUC(0-t) [1, 19]: 290 ng·h/mL | Cmax [1, 19]: 19.1 ng/mL | Tmax [1, 19]: 13.3 h | AUC(0-t) [1, 20]: 658 ng·h/mL | Cmax [1, 20]: 37.5 ng/mL | Tmax [1, 20]: 4.5 h | AUC(0-t) [1, 21]: 200 ng·h/mL | Cmax [1, 21]: 14.2 ng/mL | Tmax [1, 21]: 6.6 h | AUC(0-t) [1, 22]: 789 ng·h/mL | Cmax [1, 22]: 55.9 ng/mL | Tmax [1, 22]: 4.5 h | AUC(0-t) [1, 23]: 126 ng·h/mL | Cmax [1, 23]: 7.9 ng/mL | Tmax [1, 23]: 5.6 h | AUC(0-t) [1, 24]: 513 ng·h/mL | Cmax [1, 24]: 26.3 ng/mL | Tmax [1, 24]: 11 h | increase of mean Cmax and AUC0–24h after multiple dosing (accumulation) ([1]; patients, combination treatment): 3- to 5 fold | recommended Phase 2 dose (RP2D) / established maximum dose level in the combination with continuous dacomitinib dosing [2]: 15 mg

Source: article PMC7156736, “Phase 1 study of the pan-HER inhibitor dacomitinib plus the MEK1/2 inhibitor PD-0325901 in patients with KRAS-mutation-positive colorectal, non-small-cell lung and pancreatic cancer” (British Journal of Cancer, 2020)
